Where two headings read alike, the source gives them in different places.
Assays:
NASH model = experiment: In vivo efficacy test: NASH model in mice by high-fat diet feeding and CCl4 induction; parameters: species or system C57/BL6 mice; conditions: intragastric once a day for 28 days; for gene expression of collagen-alpha in the liver: FIG. 3; for total cholesterol (TC) and triglyceride (TG) levels in the liver: FIG. 2
From the text: In this test, NASH model was established on mice by two procedures of high-fat diet feeding and CCl4 induction to test the effects of compounds on treating NASH. Briefly, the modeling process includes feeding C57/BL6 mice with high-fat diet to induce obesity in mice and produce non-alcoholic fatty liver disease; selecting 40 obese mice with a body weight >35 g when >80% of mice reached 35 g or more, continuously feeding with high-fat diet while intraperitoneal injection of CCl4 twice a week for four weeks; as for 10 normal animals in the same batch, feeding intraperitoneally with olive oil as a healthy control. The day when CCl4 feeding was started was set to the 0th day, and the time when CCl4 feeding was started was set to 0th hour. On the day when CCl4 feeding was started, the intragastric administration was started, 5 mL/kg once a day for 4 weeks, namely 28 days. Test doses of the compound were 15 mg/kg, 30 mg/kg, 60 mg/kg, respectively; healthy control and vehicle control were given vehicle 1% hydroxypropyl methylcellulose (HPMC). During the whole experiment period, the animals were weighed and their health was monitored every day. If there are special circumstances, the relevant project leader should be notified in time and the corresponding records should be made. On the 28th day, after all the animals were weighed, they were euthanized after narcotizing and blood collecting, and the liver was taken. After the blood sample was processed into serum, ALT/AST/TG/TC were tested; for parts of the liver samples, liver TG and TC and the relative expression of collagen-1 alpha gene were tested, and for the other part, liver samples was taken for pathological analysis.

[1] = biological target: T1, glutathione-S-transferase-labeled FXR human protein (Homo sapiens, UniProt Q96RI1); experiment: FXR biochemical experiment (alphascreen, coactivator recruitment); conditions: for EC50: alphascreen, activation of FXR binding reaction with steroid receptor coactivator, read-out: FXR enzyme activity EC50; for Emax: read-out: FXR enzyme activity Efficacy (activation efficacy percent)
T1 construct: purchased Invitrogen
T1 sequence (Q96RI1 1-486): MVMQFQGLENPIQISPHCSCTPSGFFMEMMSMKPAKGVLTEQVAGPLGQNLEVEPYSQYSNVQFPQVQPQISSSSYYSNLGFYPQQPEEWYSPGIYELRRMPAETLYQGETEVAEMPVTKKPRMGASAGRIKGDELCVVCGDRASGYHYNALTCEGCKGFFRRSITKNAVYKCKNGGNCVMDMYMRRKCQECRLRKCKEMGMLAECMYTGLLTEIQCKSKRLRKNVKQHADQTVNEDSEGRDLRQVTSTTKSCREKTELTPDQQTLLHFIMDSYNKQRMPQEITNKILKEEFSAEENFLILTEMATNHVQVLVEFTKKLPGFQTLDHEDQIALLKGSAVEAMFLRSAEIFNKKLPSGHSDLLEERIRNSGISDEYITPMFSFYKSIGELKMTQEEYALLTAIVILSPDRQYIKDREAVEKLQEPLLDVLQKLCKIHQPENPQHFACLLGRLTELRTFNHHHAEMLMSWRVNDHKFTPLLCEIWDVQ
Protocol: FXR Biochemical Experiment
To test the effect of the compound on the activation of the FXR binding reaction by a Homogenous Proximity Luminescent Amplified Assay (alphascreen).
1. Protein: glutathione-S-transferase-labeled FXR human protein (Invitrogen)
2. Coactivator: biotin-labeled steroid receptor coactivator (Anaspec)
3. Detection reagent: Homogenous Proximity Luminescent Amplified Assay (alphascreen) detection kit (PerkinElmer)
1. Dilution of compounds: The test compound was prepared as a 40 μM DMSO solution, which was then diluted 3-fold to 10 concentration points. The reference compound was prepared as a 400 μM DMSO solution, and then was 1.5-fold diluted to 10 concentration points. The diluted DMSO solution was added to the micro-wells of a 384-well plate at a volume of 150 nl per well.
2. Glutathione-S-transferase-labeled FXR human protein and biotin-labeled steroid receptor coactivator were prepared to a mixed solution at a concentration of 0.4 nM and 30 nM, respectively. The mixed solution was added to the micro-wells of the 384-well plate at a volume of 15 μL per well, and incubated for 1 hour at room temperature.
3. […] The experiment process was protected from light. It was incubated for 1 hour at room temperature.
4. […] The experiment process was protected from light. It was incubated for 1 hour at room temperature.
5. EC50 test: Envision was used to excite at 680 nm and the […] signal at 520-620 nm was read.
6. Data analysis: Data analysis was conducted using Prism 5.0 to calculate the EC50 value of the activation effect of the compound.

[2] = highest signal relative to reference compound chenodeoxycholic acid (Examples 1-30)
[3] = highest signal relative to reference compound obeticholic acid (Examples 31-47)

O=C(O)c1cnc(N2C(=O)CCc3cc(OCc4c(-c5c(Cl)cccc5Cl)noc4C4CC4)ccc32)c(Cl)c1 [Compound 37] was tested, and the “blood biochemical ALT/AST indicators” value (NASH model; 15 mg/kg, FIG. 1) was “significant decrease”, the “gene expression of collagen-alpha in the liver” value (NASH model; 15 mg/kg) was “significant decrease” and the “nonalcoholic fatty liver score NAFLD (overall evaluation, pathological tissue analysis)” value (NASH model; 15 mg/kg, FIG. 5) was “significant reduction”. For the same compound, the “total cholesterol (TC) and triglyceride (TG) levels in the liver” value (NASH model; 30 mg/kg) was “significant decrease”, the “total cholesterol (TC) and triglyceride (TG) levels in the liver” value (NASH model; 60 mg/kg) was “significant decrease” and the “gene expression of collagen-alpha in the liver” value (NASH model; 60 mg/kg) was “significant decrease”. For the same compound, the “liver fibrosis (pathological tissue analysis)” value (NASH model; 60 mg/kg, FIG. 4) was “significant reduction”, the “nonalcoholic fatty liver score NAFLD (overall evaluation, pathological tissue analysis)” value (NASH model; 60 mg/kg, FIG. 5) was “significant reduction” and the “single steatosis, inflammatory molecules and ballooning change” value (NASH model; 60 mg/kg, FIG. 5) was “remarkable efficacy”.

For CC1(C)C(=O)N(Cc2cccc(C(=O)O)c2)c2ccc(OCc3c(-c4c(Cl)cccc4Cl)noc3C3CC3)cc21 [Compound 14], the EC50 [1] was 0.2 µM and the Emax [1, 2] was 136%.

O=C(O)c1ccc(N2C(=O)CCc3cc(OCc4c(-c5c(Cl)cccc5Cl)noc4C4CC4)ccc32)nc1 [Compound 40] gave an EC50 [1] of 0.058 µM and an Emax [1, 3] of 117%.

Cn1cc(C(=O)O)c2ccc(N3C(=O)CCc4cc(OCc5c(-c6c(Cl)cccc6Cl)noc5C5CC5)ccc43)cc21 [Compound 31] was tested, and the EC50 [1] was 0.043 µM and the Emax [1, 3] was 115%.

CC1(C)C(=O)N(c2cccc(C(=O)O)c2)c2ccc(OCc3c(-c4c(Cl)cccc4Cl)noc3C3CC3)cc21 [Compound 15] was tested, and the EC50 [1] was 0.23 µM and the Emax [1, 2] was 152%.

Source: US11339147B2, “Lactam compound as FXR receptor agonist” (CSPC ZHONGQI PHARMACEUTICAL TECHNOLOGY (SHIJIAZHUANG) CO., …, priority 2017, dated 2022)
